How the values were obtained:
[1] = biological target: T1, Prostaglandin G/H synthase 2 (Ovis aries, UniProt P79208)
T1 sequence (P79208 whole entry): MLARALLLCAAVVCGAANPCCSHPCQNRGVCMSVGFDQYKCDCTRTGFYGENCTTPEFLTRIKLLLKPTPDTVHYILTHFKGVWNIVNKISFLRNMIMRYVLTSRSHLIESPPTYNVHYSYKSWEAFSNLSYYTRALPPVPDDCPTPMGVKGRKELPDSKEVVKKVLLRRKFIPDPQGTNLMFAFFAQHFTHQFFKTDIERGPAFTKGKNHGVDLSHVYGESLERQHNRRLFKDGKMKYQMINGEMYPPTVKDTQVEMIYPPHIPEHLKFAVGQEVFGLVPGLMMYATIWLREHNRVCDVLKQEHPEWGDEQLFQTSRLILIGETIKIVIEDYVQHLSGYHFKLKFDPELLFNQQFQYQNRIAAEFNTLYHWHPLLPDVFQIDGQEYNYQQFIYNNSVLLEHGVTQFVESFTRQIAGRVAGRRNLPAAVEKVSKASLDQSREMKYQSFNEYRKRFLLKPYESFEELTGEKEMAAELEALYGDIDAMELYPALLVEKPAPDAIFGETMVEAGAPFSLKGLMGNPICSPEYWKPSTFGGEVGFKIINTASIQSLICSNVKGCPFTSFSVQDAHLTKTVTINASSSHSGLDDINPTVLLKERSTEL

[2] = test system: MCF7; assay: cells; type: functional, cell-based; conditions: Homo sapiens
[3] = biological target: Tubulin; type: protein-complex assay, Homo sapiens
[4] = biological target: T1, Prostaglandin G/H synthase 2; remark: listed apart in the source
[5] = species: Rattus norvegicus; assay: animal or person; type: functional
[6] = test system: MCF7; assay: cells; type: functional, cell-based; conditions: Homo sapiens, MCF7, 48 h
[7] = biological target: T2, Prostaglandin G/H synthase 1 (Mus musculus, UniProt P22437)
T2 sequence (P22437 whole entry): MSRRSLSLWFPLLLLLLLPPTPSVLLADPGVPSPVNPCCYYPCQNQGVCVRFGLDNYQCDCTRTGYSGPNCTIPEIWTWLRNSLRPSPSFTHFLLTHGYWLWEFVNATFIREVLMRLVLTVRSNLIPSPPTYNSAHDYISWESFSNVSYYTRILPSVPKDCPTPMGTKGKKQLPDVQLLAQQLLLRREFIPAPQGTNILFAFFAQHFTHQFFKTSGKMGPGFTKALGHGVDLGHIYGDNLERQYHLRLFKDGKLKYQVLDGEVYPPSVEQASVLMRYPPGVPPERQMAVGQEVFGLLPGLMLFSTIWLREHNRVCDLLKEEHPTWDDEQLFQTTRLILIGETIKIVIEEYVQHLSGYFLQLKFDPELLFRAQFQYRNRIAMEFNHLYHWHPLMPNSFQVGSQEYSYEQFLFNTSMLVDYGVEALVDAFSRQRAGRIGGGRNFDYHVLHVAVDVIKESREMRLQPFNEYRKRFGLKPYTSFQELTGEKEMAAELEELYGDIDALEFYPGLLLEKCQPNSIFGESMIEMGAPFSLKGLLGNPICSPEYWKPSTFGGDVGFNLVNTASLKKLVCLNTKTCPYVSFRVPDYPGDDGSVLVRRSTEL

Work on `[N-]=[N+]=Nc1ccc(C2=C(c3ccccc3)C(=O)OC2)cc1` yielded an IC50 [1] of 196 nM.
`Cc1ccc(-c2cc(C(F)(F)F)nn2-c2ccc(N=[N+]=[N-])cc2)cc1` gave an IC50 [1] of 1550 nM.
In the case of `COc1ccc(-c2coc(=O)n2-c2cc(OC)c(OC)c(OC)c2)cc1N`, the IC50 [2] is reported as 1.8 µM.
`COc1ccc([C@H]2OCO[C@@H]2c2cc(OC)c(OC)c(OC)c2)cc1O` showed an IC50 [3] of over 50 µM.
`COc1ccc(-c2oc(O)nc2-c2cc(OC)c(OC)c(OC)c2)cc1N` showed an IC50 [2] of 4.9 µM.
In the case of `CC1C(c2ccc(F)cc2)=C(c2ccc(S(C)(=O)=O)cc2)ON1C` (stereo not given), the IC50 [4] is reported as 31.6 nM.
Molecule `CS(=O)(=O)c1ccc(-c2snnc2-c2ccc(F)cc2)cc1` has an ED50 [5] of 0.7 mg/kg.
`COC(=O)c1ccc(-n2nc(C(F)(F)F)cc2-c2cc(OC)c(OC)c(OC)c2)cc1` showed an IC50 [6] of 1300 nM.
Molecule `COc1ccc([C@@H]2OCO[C@H]2c2cc(OC)c(OC)c(OC)c2)cc1O` has an IC50 [3] of 4 to 6 µM.
Work on `CC1(C)OC(c2ccc(S(N)(=O)=O)cc2)=C(c2cccc(F)c2)C1=O` [POLMACOXIB] yielded an IC50 [7] of 3 nM.

Reference: ChEMBL document CHEMBL4325888, “Medicinal chemistry of vicinal diaryl scaffold: A mini review” (Eur J Med Chem, 2019)
